Source: patent publication US7902187B2, “6-substituted 2-(benzimidazolyl)purine and purinone derivatives for immunosuppression” (Wyeth LLC, priority 2006, dated 2011)

What follows are compounds tested against T1, Jak3 (Homo sapiens, UniProt P52333) (assay: Jak3 Kinase Assay (HTRF)). Conditions: GST-Jak3 catalytic domain, 1 μM ATP, 60-min incubation; read-out: Jak3 Kinase, IC50 representation.
T1 construct: A fragment encoding the catalytic domain of Jak3 (508aa to 1124aa) was ligated with GST at 5′ end; made in house; host or cells: Sf9 insect cells (baculovirus, pFastBac 1)
T1 sequence (P52333 508-1124): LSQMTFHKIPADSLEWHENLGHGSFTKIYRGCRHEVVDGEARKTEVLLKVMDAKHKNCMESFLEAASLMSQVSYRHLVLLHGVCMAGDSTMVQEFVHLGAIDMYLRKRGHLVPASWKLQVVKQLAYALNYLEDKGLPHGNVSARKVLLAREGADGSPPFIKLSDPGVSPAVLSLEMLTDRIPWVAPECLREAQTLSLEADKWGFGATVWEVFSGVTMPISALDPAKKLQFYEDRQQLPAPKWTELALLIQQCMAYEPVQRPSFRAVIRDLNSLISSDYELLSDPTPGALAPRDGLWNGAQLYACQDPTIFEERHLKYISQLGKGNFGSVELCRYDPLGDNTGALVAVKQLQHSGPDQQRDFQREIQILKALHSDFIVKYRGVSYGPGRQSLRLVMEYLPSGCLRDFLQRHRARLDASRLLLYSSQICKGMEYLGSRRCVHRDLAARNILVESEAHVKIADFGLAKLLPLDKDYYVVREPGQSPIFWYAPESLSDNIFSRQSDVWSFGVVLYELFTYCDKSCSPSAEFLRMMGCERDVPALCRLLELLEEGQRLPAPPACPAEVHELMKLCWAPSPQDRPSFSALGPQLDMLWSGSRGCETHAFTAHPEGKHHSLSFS
Type: biochemical
Procedure: Human Jak3 cDNA was amplified by PCR. A fragment encoding the catalytic domain of Jak3 (508aa to 1124aa) was ligated with GST at 5′ end. This fused GST-Jak3 DNA fragment was cloned into the EcoRI site of the donor plasmid pFastBac 1 (Life Technologies #10359-016). The transformation, transposition, and transfection of insect cells (Sf9) were performed according to the manufacture's instructions. The cell lysate containing recombinant GST-Jak3 was used in the kinase assay. Anti-GST antibody (10 μg/ml, Sigma #G1417) was coated onto a 384-well plate at 4° C. overnight. Cell lysate containing GST-Jak3 (1:100 dilution) was added to the anti-GST coated plates, and GST-Jak3 was captured by immobilized anti-GST antibody. Testing compounds and substrate mix (50 mM HEPES, pH 7, 0.5 mM Na3VO4, 25 mM MgCl2, 1 mM DTT, 0.005% BSA, 1 μM ATP, and 4.5 μg/ml biotinyl poly-Glu,Ala,Tyr) were added to the plate to initiate the reaction. After a 60-min incubation, the reaction was stopped by 4 mM EDTA, and phosphorylation of biotinyl poly-Glu,Ala,Tyr was detected using 17 μg/ml Cy5-streptavidin (Amersham, #PA92005) and 2.7 μg/ml Europium-conjugated anti-phosphotyrosine antibody (PerkinElmer #AD0069) using homogeneous time-resolved fluorescence (HTRF) technology.

Row | IC50 [nM] | Compound
1 | < 100 | N#Cc1ccc2ncn(-c3nc(N4CC(O)C4)c4[nH]c(=O)n(C5CCOCC5)c4n3)c2c1
2 | < 100 | NC(=O)C1CCN(c2nc(-n3cnc4ccc(Cl)cc43)nc3c2[nH]c(=O)n3C2CCOCC2)CC1
3 | < 100 | N#Cc1ccc2ncn(-c3nc(N4CC(C(=O)O)C4)c4[nH]c(=O)n(C5CCOCC5)c4n3)c2c1
4 | < 100 | N#Cc1ccc2ncn(-c3nc(N4CC(F)(F)C4)c4[nH]c(=O)n(C5CCOCC5)c4n3)c2c1
5 | < 100 | N#Cc1ccc2ncn(-c3nc(N4CCOCC4)c4[nH]c(=O)n(C5CCOCC5)c4n3)c2c1
6 | < 100 | O=c1[nH]c2c(N3CC(O)C3)nc(-n3cnc4ccc(Cl)cc43)nc2n1C1CCOCC1
7 | < 100 | O=c1[nH]c2c(N3CC(F)(F)C3)nc(-n3cnc4ccc(F)cc43)nc2n1[C@H]1CC[C@H](O)CC1
8 | < 100 | N#Cc1ccc2ncn(-c3nc(NCCCN)c4[nH]c(=O)n(C5CCOCC5)c4n3)c2c1
9 | < 100 | O=c1[nH]c2c(N3CC[C@H](F)C3)nc(-n3cnc4ccc(F)cc43)nc2n1C1CCOCC1
10 | < 100 | N#Cc1ccc2ncn(-c3nc(N4CCCC(O)CC4)c4[nH]c(=O)n(C5CCOCC5)c4n3)c2c1 (stereo not drawn)
11 | < 100 | NC(=O)C1CCN(c2nc(-n3cnc4ccc(F)cc43)nc3c2[nH]c(=O)n3C2CCOCC2)CC1
12 | < 100 | CN1CCCN(c2nc(-n3cnc4ccc(Cl)cc43)nc3c2[nH]c(=O)n3C2CCOCC2)CC1
13 | < 100 | N#Cc1ccc2ncn(-c3nc(N4CCS(=O)(=O)CC4)c4[nH]c(=O)n(C5CCOCC5)c4n3)c2c1
14 | < 100 | O=c1[nH]c2c(NCCCO)nc(-n3cnc4ccc(Cl)cc43)nc2n1C1CCOCC1
15 | < 100 | O=c1[nH]c2c(N3CC(O)C3)nc(-n3cnc4ccc(F)cc43)nc2n1C1CCOCC1
16 | < 100 | CN1CCC(Nc2nc(-n3cnc4ccc(C#N)cc43)nc3c2[nH]c(=O)n3C2CCOCC2)CC1
17 | < 100 | O=c1[nH]c2c(N3CCC(O)C3)nc(-n3cnc4ccc(F)cc43)nc2n1C1CCOCC1 (stereo not drawn)
18 | < 100 | O=c1[nH]c2c(N3CCCC3)nc(-n3cnc4ccc(F)cc43)nc2n1C1CCOCC1
19 | < 100 | COCCNc1nc(-n2cnc3ccc(Cl)cc32)nc2c1[nH]c(=O)n2C1CCOCC1
20 | < 100 | O=c1[nH]c2c(N3CC[C@@H](F)C3)nc(-n3cnc4ccc(F)cc43)nc2n1C1CCOCC1

Row | IC50 [nM] | Compound
21 | < 100 | O=c1[nH]c2c(N3CC(F)(F)C3)nc(-n3cnc4ccc(Cl)cc43)nc2n1C1CCOCC1
22 | < 100 | N#Cc1ccc2ncn(-c3nc(-c4ccncc4)c4[nH]c(=O)n(C5CCOCC5)c4n3)c2c1
23 | < 100 | CC(C)(C)OC(=O)NCCCNc1nc(-n2cnc3ccc(C#N)cc32)nc2c1[nH]c(=O)n2C1CCOCC1
24 | < 100 | O=c1[nH]c2c(N3CCC(F)(F)C3)nc(-n3cnc4ccc(F)cc43)nc2n1C1CCOCC1
25 | < 100 | O=c1[nH]c2c(N3CC(F)(F)C3)nc(-n3cnc4ccc(F)cc43)nc2n1C1CCOCC1
26 | < 100 | O=c1[nH]c2c(NC3CNC3)nc(-n3cnc4ccc(F)cc43)nc2n1C1CCOCC1
27 | < 100 | O=c1[nH]c2c(N3CCC3)nc(-n3cnc4ccc(Cl)cc43)nc2n1C1CCOCC1
28 | < 100 | O=c1[nH]c2c(NCC3CNC3)nc(-n3cnc4ccc(F)cc43)nc2n1C1CCOCC1
29 | < 100 | Cn1cc(-c2nc(-n3cnc4ccc(F)cc43)nc3c2[nH]c(=O)n3C2CCOCC2)cn1
30 | < 100 | O=c1[nH]c2c(N3CCC3)nc(-n3cnc4ccc(F)cc43)nc2n1C1CCOCC1
31 | 100 to 1000 | O=C(O)c1nc(-n2cnc3ccc(F)cc32)nc2c1[nH]c(=O)n2C1CCOCC1
32 | 100 to 1000 | O=c1[nH]c2c(OC3CCOC3)nc(-n3cnc4ccc(F)cc43)nc2n1C1CCOCC1 (stereo not drawn)
33 | 100 to 1000 | CO[C@H]1CC[C@H](n2c(=O)[nH]c3c(Cl)nc(-n4cnc5ccc(C#N)cc54)nc32)CC1
34 | 100 to 1000 | CC1CCN(c2nc(-n3cnc4ccc(Cl)cc43)nc3c2[nH]c(=O)n3C2CCOCC2)CC1
35 | 100 to 1000 | Cc1cccc(-c2nc(-n3cnc4ccc(F)cc43)nc3c2[nH]c(=O)n3C2CCOCC2)c1
36 | 100 to 1000 | O=c1[nH]c2c(C3CCC3)nc(-n3cnc4ccc(F)cc43)nc2n1C1CCOCC1
37 | 100 to 1000 | O=c1[nH]c2c(-c3ccc(Cl)cc3)nc(-n3cnc4ccc(F)cc43)nc2n1C1CCOCC1
38 | 100 to 1000 | O=c1[nH]c2c(-c3cccc(Cl)c3)nc(-n3cnc4ccc(F)cc43)nc2n1C1CCOCC1
39 | > 1000 | O=c1[nH]c2c(-c3ccccc3Cl)nc(-n3cnc4ccc(F)cc43)nc2n1C1CCOCC1

The next lines start with the compound.

Row | Compound | IC50 [nM]
40 | Cn1c(=O)n([C@H]2CC[C@H](O)CC2)c2nc(-n3cnc4ccc(C#N)cc43)nc(N3CC(F)(F)C3)c21 | < 100
41 | O=c1[nH]c2c(N3CC(O)C3)nc(-n3cnc4ccc(F)cc43)nc2n1[C@@H]1CCOc2c(F)cccc21 | < 100
42 | Cn1c(=O)n([C@H]2CC[C@H](O)CC2)c2nc(-n3cnc4ccc(Cl)cc43)nc(N3CC[C@H](F)C3)c21 | < 100
43 | Cn1c(=O)n([C@H]2CC[C@H](O)CC2)c2nc(-n3cnc4ccc(F)cc43)nc(N3CCC3)c21 | < 100
44 | Cn1c(=O)n([C@H]2CC[C@H](O)CC2)c2nc(-n3cnc4ccc(Cl)cc43)nc(N3CC[C@@H](F)C3)c21 | < 100
45 | Cn1c(=O)n([C@H]2CC[C@H](O)CC2)c2nc(-n3cnc4ccc(F)cc43)nc(N3CC[C@@H](F)C3)c21 | < 100
46 | Cn1c(=O)n([C@H]2CC[C@H](O)CC2)c2nc(-n3cnc4ccc(F)cc43)nc(N3CCCC3)c21 | < 100
47 | Cn1c(=O)n([C@H]2CC[C@H](O)CC2)c2nc(-n3cnc4ccc(Cl)cc43)nc(N3CC(F)(F)C3)c21 | < 100
48 | CC(C)(C)OC(=O)N1CC(Nc2nc(-n3cnc4ccc(Cl)cc43)nc3c2[nH]c(=O)n3C2CCOCC2)C1 | < 100
49 | Cn1c(=O)n([C@H]2CC[C@H](O)CC2)c2nc(-n3cnc4ccc(Cl)cc43)nc(N3CCC(F)CC3)c21 | < 100
50 | Cn1c(=O)n([C@H]2CC[C@H](O)CC2)c2nc(-n3cnc4ccc(F)cc43)nc(N3CC(F)(F)C3)c21 | < 100
51 | CC(c1cccnc1)n1c(=O)[nH]c2c(N3CC(F)(F)C3)nc(-n3cnc4ccc(C#N)cc43)nc21 (stereo not drawn) | < 100
52 | O=c1[nH]c2c(-c3ccccc3)nc(-n3cnc4ccc(F)cc43)nc2n1[C@@H]1CCOc2c(F)cccc21 | 100 to 1000
53 | N#Cc1ccc(-c2nc(-n3cnc4ccc(F)cc43)nc3c2[nH]c(=O)n3[C@@H]2CCOc3c(F)cccc32)cc1 | 100 to 1000
54 | O=c1[nH]c2c(NCc3ccccc3)nc(-n3cnc4ccc(F)cc43)nc2n1C1CCOCC1 | 100 to 1000
55 | O=c1[nH]c2c(NCC3CC3)nc(-n3cnc4ccc(F)cc43)nc2n1[C@@H]1CCOc2c(F)cccc21 | 100 to 1000
56 | O=c1[nH]c2c(-c3ccccc3)nc(-n3cnc4ccccc43)nc2n1[C@@H]1CCOc2ccc(F)cc21 | 100 to 1000
57 | O=c1[nH]c2c(Cc3ccccc3)nc(-n3cnc4ccc(F)cc43)nc2n1[C@@H]1CCOc2c(F)cccc21 | 100 to 1000
58 | C[C@H](Nc1nc(-n2cnc3ccc(F)cc32)nc2c1[nH]c(=O)n2C1CCOCC1)c1ccccc1 | 100 to 1000
59 | O=c1[nH]c2c(-c3ccccc3)nc(-n3cnc4ccccc43)nc2n1C1CCOCC1 | 100 to 1000
60 | O=c1[nH]c2c(-c3ccc(Cl)cc3)nc(-n3cnc4ccc(F)cc43)nc2n1[C@@H]1CCOc2c(F)cccc21 | 100 to 1000
61 | CC(C)CNc1nc(-n2cnc3ccc(F)cc32)nc2c1[nH]c(=O)n2[C@@H]1CCOc2c(F)cccc21 | 100 to 1000
62 | CC(C)Cc1nc(-n2cnc3ccc(F)cc32)nc2c1[nH]c(=O)n2[C@@H]1CCOc2c(F)cccc21 | 100 to 1000
63 | O=c1[nH]c2c(-c3cccc4cnccc34)nc(-n3cnc4ccc(F)cc43)nc2n1C1CCOCC1 | 100 to 1000
64 | CCCCc1nc(-n2cnc3ccc(F)cc32)nc2c1[nH]c(=O)n2[C@@H]1CCOc2c(F)cccc21 | > 1000
65 | CCC(C)c1nc(-n2cnc3ccc(F)cc32)nc2c1[nH]c(=O)n2[C@@H]1CCOc2c(F)cccc21 (stereo partly drawn) | > 1000
66 | C[C@@H](Nc1nc(-n2cnc3ccc(F)cc32)nc2c1[nH]c(=O)n2C1CCOCC1)c1ccccc1 | > 1000
